In the NIST ThermoML archive (doi:10.1021/acs.jced.6b00178):
Numbers after ± are expanded uncertainties.

Experiment: xn = mol fraction of the nth substance listed
Conditions: 100 kPa, Liquid; for viscosity: Concentric cylinders viscometry; for mass density: Vibrating tube method

CCCCn1cc[n+](C)c1.F[P-](F)(F)(F)(F)F [1-butyl-3-methylimidazolium hexafluorophosphate] + CCCC[n+]1ccn(C)c1.O=S(=O)([N-]S(=O)(=O)C(F)(F)F)C(F)(F)F
Conditions	mass density, x2 = 0 [kg/m3]	mass density, x2 = 0.25 [kg/m3]	mass density, x2 = 0.5 [kg/m3]	mass density, x2 = 0.748 [kg/m3]	viscosity, x2 = 0 [mPa·s]	viscosity, x2 = 0.25 [mPa·s]	viscosity, x2 = 0.5 [mPa·s]	viscosity, x2 = 0.748 [mPa·s]
283.15 K	1379.9 ± 0.7	1402.5 ± 0.7	1421.1 ± 0.7	1437.4 ± 0.8	794.33 ± 48	360.25 ± 20	221.31 ± 12	148.25 ± 7.7
288.15 K	1376.5 ± 0.7	1398.3 ± 0.7	1417.2 ± 0.7	1433.1 ± 0.7	557.27 ± 33	264.71 ± 14	166.04 ± 8.7	112.57 ± 5.8
293.15 K	1372 ± 0.7	1393.8 ± 0.7	1412.6 ± 0.7	1428.4 ± 0.7	393.86 ± 22	196.39 ± 10	126.16 ± 6.5	87.23 ± 4.4
298.15 K	1367.6 ± 0.7	1389.4 ± 0.7	1408 ± 0.7	1423.7 ± 0.7	285.02 ± 16	148.96 ± 7.8	97.74 ± 5	68.88 ± 3.5
303.15 K	1363.4 ± 0.7	1385 ± 0.7	1403.5 ± 0.7	1419 ± 0.7	210.93 ± 11	115.08 ± 5.9	77.09 ± 3.9	55.3 ± 2.8
308.15 K	1359.2 ± 0.7	1380.7 ± 0.7	1399 ± 0.7	1414.3 ± 0.7	159.46 ± 8.3	90.44 ± 4.6	61.82 ± 3.1	45.08 ± 2.3
313.15 K	1355.1 ± 0.7	1376.4 ± 0.7	1394.5 ± 0.7	1409.7 ± 0.7	122.78 ± 6.3	72.18 ± 3.6	50.31 ± 2.5	37.25 ± 1.9
318.15 K	1351 ± 0.7	1372.1 ± 0.7	1390 ± 0.7	1405.1 ± 0.7	96.28 ± 4.9	58.45 ± 2.9	41.52 ± 2.1	31.17 ± 1.6
323.15 K	1347 ± 0.7	1367.9 ± 0.7	1385.6 ± 0.7	1400.5 ± 0.7	76.72 ± 3.9	47.96 ± 2.4	34.68 ± 1.7	26.38 ± 1.3
328.15 K	1342.9 ± 0.7	1363.6 ± 0.7	1381.2 ± 0.7	1395.9 ± 0.7	62.04 ± 3.1	39.84 ± 2	29.3 ± 1.5	22.56 ± 1.1
333.15 K	1338.9 ± 0.7	1359.4 ± 0.7	1376.7 ± 0.7	1391.3 ± 0.7	50.85 ± 2.6	33.47 ± 1.7	25 ± 1.3	19.47 ± 0.98
338.15 K	1334.9 ± 0.7	1355.2 ± 0.7	1372.3 ± 0.7	1386.8 ± 0.7	42.2 ± 2.1	28.39 ± 1.4	21.53 ± 1.1	16.96 ± 0.85
343.15 K	1330.9 ± 0.7	1351 ± 0.7	1368 ± 0.7	1382.3 ± 0.7	35.43 ± 1.8	24.3 ± 1.2	18.7 ± 0.94	14.88 ± 0.75
348.15 K	1326.9 ± 0.7	1346.9 ± 0.7	1363.6 ± 0.7	1377.9 ± 0.7	30.04 ± 1.5	20.99 ± 1.1	16.38 ± 0.82	13.15 ± 0.66
353.15 K	1323 ± 0.7	1342.7 ± 0.7	1359.3 ± 0.7	1373.4 ± 0.7	25.72 ± 1.3	18.29 ± 0.92	14.44 ± 0.73	11.7 ± 0.59
358.15 K	1319 ± 0.7	1338.6 ± 0.7	1355.1 ± 0.7	1369 ± 0.7	22.22 ± 1.1	16.04 ± 0.81	12.82 ± 0.65	10.47 ± 0.53
363.15 K	1315.2 ± 0.7	1334.6 ± 0.7	1350.8 ± 0.7	1364.6 ± 0.7	19.36 ± 0.97	14.17 ± 0.71	11.46 ± 0.58	9.428 ± 0.47

CCCCn1cc[n+](C)c1.N#C[S-] [1-butyl-3-methylimidazolium thiocyanate] + CCCC[n+]1ccn(C)c1.O=S(=O)([N-]S(=O)(=O)C(F)(F)F)C(F)(F)F
Conditions	mass density, x2 = 0 [kg/m3]	mass density, x2 = 0.25 [kg/m3]	mass density, x2 = 0.5 [kg/m3]	mass density, x2 = 0.748 [kg/m3]	viscosity, x2 = 0 [mPa·s]	viscosity, x2 = 0.25 [mPa·s]	viscosity, x2 = 0.5 [mPa·s]	viscosity, x2 = 0.748 [mPa·s]
283.15 K	1079.2 ± 1	1206.2 ± 1.1	1305.3 ± 1	1385.3 ± 0.9	139.54 ± 7.3	133.49 ± 7	124.13 ± 6.4	115.12 ± 5.9
288.15 K	1076.2 ± 1	1202.6 ± 1	1301.2 ± 1	1380.7 ± 0.9	104.51 ± 5.4	101.08 ± 5.2	94.68 ± 4.8	88.29 ± 4.5
293.15 K	1073.2 ± 1	1199 ± 1	1297.1 ± 1	1376.2 ± 0.9	82.91 ± 4.3	80.92 ± 4.1	76.17 ± 3.9	71.22 ± 3.6
298.15 K	1070.2 ± 1	1195.4 ± 1	1293.1 ± 1	1371.7 ± 0.9	62.63 ± 3.2	61.69 ± 3.1	58.5 ± 3	55.06 ± 2.8
303.15 K	1067.2 ± 1	1191.8 ± 1	1289 ± 1	1367.3 ± 0.9	49.94 ± 2.6	49.55 ± 2.5	47.23 ± 2.4	44.62 ± 2.3
308.15 K	1064.2 ± 1	1188.3 ± 1	1285 ± 1	1362.8 ± 0.9	40.48 ± 2.1	40.42 ± 2.1	38.7 ± 2	36.7 ± 1.9
313.15 K	1061.3 ± 1	1184.7 ± 1	1281 ± 0.9	1358.4 ± 0.8	34.08 ± 1.7	34.22 ± 1.7	32.85 ± 1.7	31.22 ± 1.6
318.15 K	1058.4 ± 1	1181.2 ± 1	1277.1 ± 0.9	1354 ± 0.8	27.8 ± 1.4	28.05 ± 1.4	27.03 ± 1.4	25.81 ± 1.3
323.15 K	1055.5 ± 1	1177.7 ± 1	1273.1 ± 0.9	1349.7 ± 0.8	23.49 ± 1.2	23.79 ± 1.2	22.97 ± 1.2	22.01 ± 1.1
328.15 K	1052.6 ± 1	1174.3 ± 1	1269.2 ± 0.9	1345.3 ± 0.8	20.06 ± 1	20.39 ± 1	19.74 ± 1	18.96 ± 0.96
333.15 K	1049.8 ± 1	1170.8 ± 1	1265.3 ± 0.9	1341 ± 0.8	17.58 ± 0.9	17.91 ± 0.91	17.36 ± 0.88	16.7 ± 0.84
338.15 K	1047 ± 1	1167.4 ± 1	1261.5 ± 0.9	1336.7 ± 0.8	15.08 ± 0.77	15.38 ± 0.78	14.94 ± 0.76	14.44 ± 0.73
343.15 K	1044.1 ± 1	1164 ± 1	1257.6 ± 0.9	1332.4 ± 0.8	13.24 ± 0.68	13.54 ± 0.69	13.16 ± 0.67	12.74 ± 0.64
348.15 K	1041.4 ± 1	1160.6 ± 1	1253.8 ± 0.9	1328.1 ± 0.8	11.71 ± 0.6	12 ± 0.61	11.67 ± 0.59	11.33 ± 0.57
353.15 K	1038.6 ± 1	1157.3 ± 1	1250 ± 0.9	1323.9 ± 0.8	10.67 ± 0.55	10.92 ± 0.56	10.65 ± 0.54	10.36 ± 0.52
358.15 K	1035.8 ± 1	1154 ± 1	1246.2 ± 0.9	1319.7 ± 0.8	9.355 ± 0.48	9.577 ± 0.49	9.351 ± 0.47	9.114 ± 0.46
363.15 K	1033.1 ± 1	1150.7 ± 1	1242.4 ± 0.9	1315.5 ± 0.8	8.436 ± 0.43	8.621 ± 0.44	8.44 ± 0.43	8.242 ± 0.42
